Measured values as given in paper PMC9694777, “Fractionation and Extraction Optimization of Potentially Valuable Compounds and Their Profiling in Six Varieties of Two Nicotiana Species” (Molecules, 2022).

Assay: physchem
Text: Determination of the small molecule content in a complex plant matrix depends on the understanding of minimum solubility in the chosen extraction solvent. […] Often, tests on mixture are hardly reproducible on pure compounds if this aspect is not routinely considered in the workflow. We performed a general testing of best solvent systems to compare a wide range of small molecules of interest to understand the limitations of general approaches within a complex plant matrix such as Nicotiana.
For each of the 29 reference compounds, 2 mg was weighed into a 15 mL glass tube and dissolved in the minimum amount of the test solvent by gradually adding the solvent with a micropipette until complete dissolution or to a final volume of 10.0 mL. Seven solvents with polarities from nonpolar to polar were chosen for the test: hexane (C6H14), CH2Cl2, CH2Cl2/MeOH (4:1, v/v), EtOH, MeOH, MeOH/H2O (7:3, v/v), and H2O. The consumed solvents and their volumes were recorded for each reference compound.

Vitamin E
Solubility in C6H14: 215 mg/mL | Solubility in CH2Cl2: 208 mg/mL | Solubility in CH2Cl2/MeOH (4:1): 241 mg/mL | Solubility in EtOH: 43.0 mg/mL | Solubility in H2O: NS (key: NS: not soluble, insoluble in the solvent at the tested concentration range (0.19–558 mg/mL)) | Solubility in MeOH: 31.2 mg/mL | Solubility in MeOH/H2O (7:3): 0.23 mg/mL
